Assay results taken from patent US20210353784A1, “DETECTING AND TREATING CANCERS USING CELL PENETRANT MTP53-OLIGOMERIZATION-DOMAIN PEPTIDE” (priority 2020, published 2021).
Ends that are not written are not given here.

Tested on: MDA-MB-468 and MCF7 cells
Test: Live cell imaging staining with Cy5 conjugated first and second-generation TAT-mtp53ODP
Format: cell-based, Human
Details: 500 nM, 4 h incubation
Method: FIG. 7 quantifies the results of live cell imaging staining of MDA-MB-468 and MCF7 cells with 4 h incubation of 500 nM Cy5 conjugated first (TAT-mtp53ODP-35mer, SEQ ID NO: 3) and second-generation (TAT-mtp53ODP-27mer (SEQ ID NO: 7) and TAT-mtp53ODP-37mer (SEQ ID NO: 8)) after 4 h incubation. Cells were imaged by confocal microscopy. Quantification of Cy5 conjugated TAT-mtp53ODP uptake in MDA-MB-468 cells and MCF7 cells was conducted by Nikon Element analysis. […] Three independent experiments with biological replicate were performed. Statistical analyses were conducted in Graphpad Prism 9. Results are expressed as mean+SEM. Statistical significance for hypothesis testing was performed by Student's t-test. The following format was used to assign significance based on P-value: *p-value ≤0.05, ** p-value […] p-value ≤0.001.
Live cell imaging staining was also performed on second-generation peptides based on Cy5-conjugated SEQ ID NO: 7 and SEQ ID NO: 8. FIG. 7 depicts the results of live cell imaging staining of MDA-MB-468 and MCF7 cells with 4 h incubation of 500 nM Cy5 conjugated first (TAT-mtp53ODP-35mer, SEQ ID NO: 3) and second-generation (TAT-mtp53ODP-27mer (SEQ ID NO: 7) and Cy5-conjugated TAT-mtp53ODP-37mer (SEQ ID NO: 8)) after 4 h incubation. Cells were imaged by confocal microscopy. A scrambled peptide was included as a control. […]

| Sequence | activity relative to TAT-mtp53ODP-35mer (SEQ ID NO: 3) |
| --- | --- |
| GRKKRRQRRGEYFTLQIRGRERFEMFR (also: Cy5 conjugate) [TAT-mtp53ODP-27mer, Cy5 conjugated second-generation TAT-mtp53ODP peptide] | reduced activity |
| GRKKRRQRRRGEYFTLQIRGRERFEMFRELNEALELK (also: Cy5 conjugate) [TAT-mtp53ODP-37mer, Cy5 conjugated second-generation TAT-mtp53ODP peptide] | enhanced activity |
